Assay: Comment Code material properties: vapor pressure, ClogP, probability of ingredient color instability, odor detection threshold, melamine formaldehyde PMC headspace response ratio and leakage, liquid dish neat product liquid-air partition coefficient
Assay type: physicochemical
[1] = cell strings several class symbols together, each letter is one property class of L1
[2] = Table 1 materials, each letter of the code is one property class (vapor pressure, ClogP, color instability, odor detection threshold, PMC headspace ratio, PMC leakage, liquid dish liquid-air partition coefficient)

| Comment Code [1] | Comment Code [2] | Structure (SMILES) |
| --- | --- | --- |
| ACEFHIKL | – | CC/C=C\CCOC(=O)CC [Material 538] |
| ADEFHJKL | – | CC/C=C\CCOC(=O)CCC [Material 540] |
| ACEFHIKL | – | CC/C=C\CCO [Material 542] |
| ACEFHIKL | – | CCC/C=C\CO [Material 547] |
| BCHIJK | – | Cc1cc(O)cc(C)c1Cl [Material 557] |
| – | DGJ | O=C1CCCCCCCCCCOCCCCO1 [Material 562] |
| BDEFHJK | ADEFHJK | COC1(C)CCC23CC1C(C)(C)C2CCC3C (centres unmarked) [Material 565] |
| BDEFHJK | BDEFHJK | CC1CCC2C(C)(C)C3CC12CCC3(C)OC=O (centres unmarked) [Material 566] |
| DEFHJK | DEFHJK | CC(=O)O[C@]1(C)CC[C@@]23C[C@@H]1C(C)(C)[C@@H]2CC[C@H]3C [Material 567] |
| – | DFHJK | CC1=CCCC2(C)OC2CCC(C)=CCC1 (centres unmarked) [Material 568] |
| DEFHJK | DEFHJK | C[C@@H]1CC[C@H]2C(C)(C)[C@H]3C[C@@]12CC[C@@]3(C)O [Material 569] |
| DEFHJK | DEFHJK | CC1=CCC(C23CCCC(C)(C2)OC3)C1(C)C (centres unmarked) [Material 570] |
| – | DFHJ | CC1=CCC(C23CCCC(C)(C2)OC3)C1(C)C (centres unmarked) [Material 571] |
| – | BDEFHIJK | CC1C(C)(C)C2=C(C(=O)CCC2)C1(C)C (centres unmarked) [Material 572] |
| DEFHJK | DEFHJK | CC(=O)OC12CCCC(C)(CCC3C1CC3(C)C)C2 (centres unmarked) [Material 573] |
| DEFHJK | DEFHJK | CC12CCCC(O)(C1)C1CC(C)(C)C1CC2 (centres unmarked) [Material 574] |
| ACGIJKL | – | C=C(C)C1CC=C(C)C(=O)C1 (centres unmarked) [Material 576] |
| – | BDHIJK | C=C(C)C1CC=C(C)C(OC(C)=O)C1 (centres unmarked) [Material 577] |
| BCEFGIK | – | CCOCCOCCO [Material 579] |
| – | ACEFGIKL | CCCCCCCCO [Material 580] |
| – | DEFHJK | CCCCCCCCCC(=O)O [Material 582] |
| ACEFGIKL | – | CCCCCC(=O)O [Material 583] |
| – | ADHKL | CCCCCCCCCC=O [Material 584] |
| ACGIJKL | – | CC1=CCC(CC#N)C1(C)C (centres unmarked) [Material 585] |

| Comment Code [1] | Comment Code [2] | Structure (SMILES) |
| --- | --- | --- |
| – | BCHJK | COc1ccc(CC(C)C=O)cc1 (centres unmarked) [Material 586] |
| – | ACEFGIJK | CC12CCC(C(=O)C1=O)C2(C)C (centres unmarked) [Material 587] |
| ACEFGIJKL | – | CC12CCC(CC1=O)C2(C)C (centres unmarked) [Material 588] |
| – | ADEFGIJKL | C=C1C2CCC(C2)C1(C)C (centres unmarked) [Material 589] |
| – | DHJ | CCCCCC1CC(=O)C=C(C)C1C(=O)OCC (centres unmarked) [Material 591] |
| – | DEFHJ | CCCCCCCCCCCCCCCCCC(=O)OCCCC [Material 594] |
| – | CEFGJK | CCCCOC(=O)C(C)OC(=O)CCC (centres unmarked) [Material 595] |
| – | DEFHJK | C=CCCCCCCCCC(=O)OCCCC [Material 599] |
| – | DEFHJK | CC1=CCC(CCC(C)CO)C1(C)C (centres unmarked) [Material 600] |
| – | BDHJK | CC(C)(C)c1ccc(CCC=O)cc1 [Material 601] |
| DHJK | – | CC1=C(C/C=C(\C)C=O)C(C)(C)CCC1 [Material 602] |
| – | BDEFHIJK | CC(C)C(=O)OC1CC2CCC1(C)C2(C)C (centres unmarked) [Material 603] |
| – | ADEFHIJKL | CC(=O)OC1CC2CCC1(C)C2(C)C (centres unmarked) [Material 604] |
| – | BDEFHJK | C=C1C2CCC(C)(OCC)C1CCC2(C)C (centres unmarked) [Material 606] |
| – | DEFHJK | CCOCOC1CCCCCCCCCCC1 [Material 607] |
| – | DEFHJK | CC(C)=CCCC(C)=C1CC=C(C)CC1 [Material 608] |
| – | DHJK | CC1=CC(=O)CC(C)C12CCC(=C(C)C)C2 (centres unmarked) [Material 610] |
| – | BDHJK | C=C(C)C1CCC(C)(OC(C)=O)CC1 (centres unmarked) [Material 611] |
| – | BCGIJK | C=C(C)C1CCC(C)(O)CC1 (centres unmarked) [Material 612] |
| – | DHJK | C=CC(=C)CCC=C(C)CCC=C(C)C=O [Material 613] |
| – | DEFHJK | C=C1C=CC(C(C)CCC=C(C)C)CC1 (centres unmarked) [Material 614] |
| – | BDEFGJK | C=C(C)C1CCC2(C)CCCC(=C)C2C1 (centres unmarked) [Material 615] |
| DEFHJK | DEFHJK | C=C1C2CCC(C2)C1(C)CCC=C(C)CO (centres unmarked) [Material 616] |
| ACEFGIJKL | – | CC1(C)C2CCC3(CO3)C1C2 (centres unmarked) [Material 617] |

| Comment Code [1] | Comment Code [2] | Structure (SMILES) |
| --- | --- | --- |
| ADEFGIJKL | – | C=C1C=CC(C(C)C)CC1 (centres unmarked) [Material 619] |
| BDEFGJKL | BDEFGJKL | CC1CCC2=C1CC1CCC2(C)C1(C)C (centres unmarked) [Material 621] |
| – | DEFHJKL | CC1=CC2C(=C(C)CCCC2(C)C)CC1 (centres unmarked) [Material 625] |
| – | DEFHJKL | CC(C)=C1CCC(C)C2=C(C1)C(C)CC2 (centres unmarked) [Material 626] |
| DHJK | DHJK | COC(Cc1ccccc1)OC [Material 627] |
| – | DEFHJK | C=CC(=C)CCC=C(C)CCC=C(C)C [Material 628] |
| BDEFHJKL | BDEFHJKL | C=C1CCC2C3C(C(C)C)CCC2(C)C13 (centres unmarked) [Material 631] |
| BDEFGJKL | BDEFGJKL | C=C1CCC23CC1C(C)(C)C2CCC3C (centres unmarked) [Material 632] |
| – | DEFHJKL | C=C1CCC=C(C)CCC2C1CC2(C)C (centres unmarked) [Material 633] |
| – | BDEFHIJK | CC(=O)C=CC12OC1(C)CCCC2(C)C (centres unmarked) [Material 636] |
| – | CGJ | COc1c2ccoc2cc2oc(=O)ccc12 [Material 638] |
| – | CEFGJK | CC(C)(O)CCc1ccccc1 [Material 639] |
| ACEFGIK | – | CC(=O)CCc1ccccc1 [Material 640] |
| DFGJ | – | O=C(OCc1ccccc1)c1ccccc1O [Material 641] |
| – | DEFHJ | CCCCCCCCCCCC(=O)OCc1ccccc1 [Material 644] |
| BDEFHJK | – | CC(C)CC(=O)OCc1ccccc1 [Material 645] |
| BCHJK | – | CC(C)C(=O)OCc1ccccc1 [Material 647] |
| – | BCEFGIK | CC(C)(O)Cc1ccccc1 [Material 649] |
| – | DHJ | O=C(/C=C/c1ccccc1)OCc1ccccc1 [Material 650] |
| ACEFGIKL | – | OCc1ccccc1 [Material 652] |
| – | DHJ | O=C(OCc1ccccc1)c1ccccc1 [Material 653] |
| – | DHJ | CC(C)CCc1ccc2c(c1)OCC(=O)CO2 [Material 658] |
| BDEFHJK | DEFHJK | CC(C)C1OCCC2(CC3CCC2(C)C3(C)C)O1 (centres unmarked) [Material 659] |
| – | DEFHJK | CC(C)=CCCC1=CCC(C#N)CC1 (centres unmarked) [Material 660] |

| Comment Code [1] | Comment Code [2] | Structure (SMILES) |
| --- | --- | --- |
| – | DEFHJ | COC(=O)c1ccccc1N=CCC(C)CCCC(C)(C)O (centres unmarked) [Material 661] |
| ADEFHIJKL | – | CC(OC=O)C1CCCC(C)(C)C1 (centres unmarked) [Material 662] |
| BCEFGK | – | COc1ccc(COC(C)=O)cc1 [Material 664] |
| BCEFGK | – | COc1ccc(COC=O)cc1 [Material 665] |
| – | ACEFHKL | C=CC/C=C/CCC(=O)OC [Material 668] |
| – | DEFHJK | CCCCCOC(=O)C=Cc1ccccc1 [Material 671] |
| DEFHJK | – | CCCCCOC(=O)c1ccccc1 [Material 672] |
| DEFHJK | DEFHJK | C[C@@H]1CC[C@H]2C(C)(C)[C@H]3C[C@@]12CC1OC(C)(C)OC13C (some centres unmarked) [Material 674] |
| – | DEFHJK | CC1(O)CCC2=C(CCCC2(C)C)C1 (centres unmarked) [Material 675] |
| – | DEFHJK | CC1(O)CCC2=C(CCCC2(C)C)C1 (centres unmarked) [Material 676] |
| – | DEFHJK | CCC(O)COC1CCCCC1C(C)(C)C (centres unmarked) [Material 677] |
| DEFHJ | DEFHJ | CC1(C)CCC[C@@]2(C)[C@H]1CC[C@]13CO[C@](C)(CC[C@@H]12)O3 [Material 678] |
| DEFHJK | ADEFHJK | CC1C(C)(C)C2CCC3CC(C)(C)OC3C2C1(C)C (centres unmarked) [Material 679] |
| ADEFHJK | ADEFHJK | CC1C(C)(C)C2CCC3CC(C)(C)OC3C2C1(C)C (centres unmarked) [Material 680] |
| DHJK | DHJK | CC(C)=C1CCC2=CC(=O)CC(C)C2(C)C1 (centres unmarked) [Material 684] |
| – | BDEFHJK | CCC(=O)OC(C)(C)C1CC=C(C)CC1 (centres unmarked) [Material 686] |
| BDHJK | – | CC(=O)OC(C)(C)C1CC=C(C)CC1 (centres unmarked) [Material 687] |
| – | DHJK | C=CC(C)=CCC=C(C)CCC=C(C)C=O [Material 691] |
| – | BDEFHJK | C=C(C)C1CCC2(C)CCC=C(C)C2C1 (centres unmarked) [Material 692] |
| – | ADEFHJKL | CC(C)=CCCC1(C)C2CC3C(C2)C31C (centres unmarked) [Material 693] |
| DEFHJK | DEFHJK | CC(=CCCC1(C)C2CC3C(C2)C31C)CO (centres unmarked) [Material 694] |
| – | BDHJK | C=CCCC(=O)C1=CCCC(C)(C)C1 [Material 697] |
| – | DEFHJKL | CC1=CC2C(CC1)C(C)=CCC2C(C)C (centres unmarked) [Material 698] |
| BDEFHIK | – | CC(O)CCC1CCCCC1 (centres unmarked) [Material 699] |

| Structure (SMILES) | Comment Code [1] | Comment Code [2] |
| --- | --- | --- |
| N#CC=Cc1ccccc1 [Material 549] | ACEFGIK | – |
| O=C/C=C/c1ccccc1 [Material 554] | ACHIK | – |
| N#C/C=C/c1ccccc1 [Material 556] | ACEFGIK | – |
| CC(=O)c1cc(C(C)(C)C)cc2c1CCC2(C)C [Material 563] | – | DEFHJK |
| Cc1ccc(C(C)C)cc1O [Material 575] | DHIJK | – |
| CCCCCCCC#N [Material 578] | – | ACEFGIKL |
| CC(C)[C@@]12CC(=O)[C@H](C)[C@@H]1C2 [Material 683] | – | ADEFGIJKL |

Reference: patent publication US20160089464A1, “MALODOR REDUCTION COMPOSITIONS” (The Procter & Gamble Company, priority 2014, published 2016)
